These compounds were tested against cAMP and cAMP-inhibited cGMP 3',5'-cyclic phosphodiesterase 10A (Homo sapiens, UniProt Q9Y233) (assay: PDE10A assay).
How it was run: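 Human PDE10A (2 ng/well) preincubated 15 min RT with compound in HEPES pH 7.5, 10 mM MgCl2, BSA, then reacted 15 min with 50 nM [3H]cGMP/cGMP substrate. Stopped with Y-Si SPA beads; bound radioactivity counted, IC50 from four-parameter logistic, pIC50 = −log10(IC50).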
`Cc1ncc(Nc2cncnc2)c(C(=O)N[C@@H]2CCN(c3ccc(Cl)cn3)C2)n1` [Roche-Dataset for PDE10A, Compound 336] was tested, and the IC50 was 242 nM. Work on `O=C(Nc1ccn(CC(F)(F)F)n1)c1nc(C2CC2)ccc1Nc1cncnc1` [Roche-Dataset for PDE10A, Compound 603] yielded an IC50 of 6.39 nM. With `CC(C)Oc1cccc(NC(=O)c2nc(C3CC3)cnc2Nc2cncnc2)c1` [Roche-Dataset for PDE10A, Compound 721] the IC50 was 9.47 nM. In the case of `Cn1ncc(C(=O)N2CCC2)c1C(=O)N[C@@H]1CCn2cc(-c3ccccc3OC(F)F)nc2C1` [Roche-Dataset for PDE10A, Compound 257], the IC50 is reported as 6.04 nM. With `COCCn1ccc(NC(=O)c2nc(Cl)ccc2Nc2cncnc2)n1` [Roche-Dataset for PDE10A, Compound 864] the IC50 was 117 nM. In the case of `Cn1nc(-c2cccc(Cl)n2)cc1NC(=O)c1nc(C2CC2)ccc1Nc1cncnc1` [US8470820, 41], the IC50 is reported as 2.77 nM. Work on `O=C(Nc1ccn2nc(-c3ccccc3)nc2c1)c1cnc(Cl)c(Cl)c1` [Roche-Dataset for PDE10A, Compound 518] yielded an IC50 of 1030 nM. Compound `CC(C)c1cc(NC(=O)c2c(C(=O)N3CCC3)cnn2C)n(C2CCCC2)n1` [Roche-Dataset for PDE10A, Compound 1042] has an IC50 of 854 nM. `O=C(NCC(F)(F)F)c1nc(C2CC2)cnc1Nc1cncnc1` [Roche-Dataset for PDE10A, Compound 1124] gave an IC50 of 1240 nM. In the case of `COc1c(C)cnc(/C=C/c2nc(-c3ccccc3)cn2C)c1C` [Roche-Dataset for PDE10A, Compound 245], the IC50 is reported as 987 nM. `COCC1(CNC(=O)c2nc(C3CC3)cnc2Nc2cncnc2)CC1` [Roche-Dataset for PDE10A, Compound 1010] showed an IC50 of 1790 nM. `CNC(=O)[C@H]1CCC[C@@H]1NC(=O)c1nc(C2CC2)cnc1Nc1cncnc1` [Roche-Dataset for PDE10A, Compound 1000] gave an IC50 of 696 nM. `Cc1cnccc1NC(=O)c1ccc2cc(-c3ccccc3)nn2c1` [Roche-Dataset for PDE10A, Compound 448] gave an IC50 of 563 nM. `Cn1ncc(C(=O)N2CCC2)c1C(=O)Nc1ccc2nc(N3CCOCC3)nn2c1` [Roche-Dataset for PDE10A, Compound 412] showed an IC50 of 16 nM. `O=C(NC1CCCC1)c1nc(C2CC2)cnc1Nc1cncnc1` [Roche-Dataset for PDE10A, Compound 1041] was tested, and the IC50 was 965 nM. In the case of `Cn1ncc(C(=O)N2CCOCC2)c1C(=O)N[C@H]1CCn2cc(-c3ccccc3Cl)nc2C1` [Roche-Dataset for PDE10A, Compound 1009], the IC50 is reported as 436 nM. Compound `CNC(=O)c1c(NC(=O)c2nc(C)c(C)nc2Nc2cncnc2)cnn1C` [Roche-Dataset for PDE10A, Compound 1099] has an IC50 of 7810 nM. Work on `CNC(=O)c1cc(OC)ccc1NC(=O)c1nc(C2CC2)cnc1Nc1cncnc1` [US8703768, 225] yielded an IC50 of 0.48 nM. Compound `Cn1ncc(C(=O)O)c1C(=O)Nc1ccc2nc(N3CCOCC3)nn2c1` [Roche-Dataset for PDE10A, Compound 1151] has an IC50 of 1340 nM. For `Cn1cc(-c2ccccc2)nc1CCc1cccc(-c2ccccn2)n1` [Roche-Dataset for PDE10A, Compound 237], the IC50 was 2420 nM. For `COc1ncc(C2CC2)nc1C(=O)Nc1cc(-c2ccccn2)nn1C` [Roche-Dataset for PDE10A, Compound 776], the IC50 was 1680 nM. For `COCCn1ccc(NC(=O)c2nc(C3CC3)ccc2Nc2cncnc2)n1` [Roche-Dataset for PDE10A, Compound 640], the IC50 was 14 nM. With `Cn1cc(-c2ccccc2)nc1COc1cc(N2CCOCC2)nc(-c2ccn[nH]2)n1` [Roche-Dataset for PDE10A, Compound 108] the IC50 was 371 nM. With `CCCn1ccc(NC(=O)c2c(C(=O)N3CCC3)cnn2C)n1` [Roche-Dataset for PDE10A, Compound 1116] the IC50 was 404 nM. In the case of `CC(C)Oc1cccc(NC(=O)c2nc(C3CC3)cnc2Nc2cncnc2)n1` [Roche-Dataset for PDE10A, Compound 917], the IC50 is reported as 24 nM. For `CC(C)c1nnc2c(C(=O)NCCc3nc(-c4ccccc4)cn3C)cccn12` [Roche-Dataset for PDE10A, Compound 201], the IC50 was 25 nM. `CNC(=O)c1nn(C)cc1NC(=O)c1ccc2cc(-c3ccccc3)nn2c1` [Roche-Dataset for PDE10A, Compound 532] showed an IC50 of 195 nM. Work on `Cc1cnn2c(C)c(CCc3nc(N4CCCC4)nn3C)nc2c1C` [Roche-Dataset for PDE10A, Compound 216] yielded an IC50 of 20 nM. With `Cc1c(Cl)cc(Cl)c2nc(CCc3nccs3)nn12` [Roche-Dataset for PDE10A, Compound 996] the IC50 was 511 nM. Compound `O=C(NCc1ccc(F)c(F)c1)c1nc(C2CC2)cnc1Nc1cncnc1` [Roche-Dataset for PDE10A, Compound 799] has an IC50 of 376 nM. With `Cc1nc2ccc(NC(=O)c3c(C(=O)N4CCC4)cnn3C)cn2n1` [Roche-Dataset for PDE10A, Compound 1007] the IC50 was 3720 nM. `CN(C(=O)c1cnn(C)c1C(=O)N[C@@H]1CCn2cc(-c3ccccc3)nc2C1)C1CC1` [Roche-Dataset for PDE10A, Compound 133] showed an IC50 of 4.3 nM. With `O=C(Nc1cnoc1-c1ccccc1)c1nc(C2CC2)ccc1Nc1cncnc1` [Roche-Dataset for PDE10A, Compound 607] the IC50 was 1.93 nM. Work on `CN(C)c1nc2ccc(NC(=O)c3c(C(=O)N4CCC4)cnn3C)cn2n1` [Roche-Dataset for PDE10A, Compound 652] yielded an IC50 of 8.76 nM. `O=C(Nc1ccccc1)c1cccc(NC(=O)c2nc(C3CC3)ccc2Nc2cncnc2)c1` [Roche-Dataset for PDE10A, Compound 556] showed an IC50 of 6.79 nM. For `O=C(Nc1ccn(C2CC2)n1)c1nc(C2CC2)ccc1Nc1cncnc1` [Roche-Dataset for PDE10A, Compound 715], the IC50 was 26 nM. Work on `Cn1ncc(C(=O)N2CCC2)c1C(=O)Nc1cc(C2CCC2)n[nH]1` [Roche-Dataset for PDE10A, Compound 1078] yielded an IC50 of 10000 nM. In the case of `CC1(CNC(=O)c2nc(C3CC3)cnc2Nc2cncnc2)COC1` [Roche-Dataset for PDE10A, Compound 1092], the IC50 is reported as 2980 nM. Compound `Cn1ncc(C(=O)N2CCC2)c1C(=O)Nc1ccn(CC2CC2)n1` [Roche-Dataset for PDE10A, Compound 1075] has an IC50 of 329 nM. `Cn1cc(-c2ccccc2)nc1COc1cnc(Br)c(C(=O)Nc2cncnc2)n1` [Roche-Dataset for PDE10A, Compound 716] was tested, and the IC50 was 2940 nM. `CC(C)(O)CNC(=O)c1cc(C#N)ccc1NC(=O)c1nc(C2CC2)cnc1Nc1cncnc1` [US8703768, 262] showed an IC50 of 0.71 nM. `Cc1c(Cl)cc(OCC(=O)N2CCOCC2)c2nc(CCc3nc(N4CCCC4)nn3C)nn12` [Roche-Dataset for PDE10A, Compound 23] was tested, and the IC50 was 2.07 nM. Work on `Cn1ncc(C(=O)N2CCC2)c1C(=O)Nc1cc2nc(-c3ccccc3)nn2cc1F` [Roche-Dataset for PDE10A, Compound 204] yielded an IC50 of 0.78 nM. For `O=C(NCC1CCOCC1)c1nc(C2CC2)cnc1Nc1cncnc1` [Roche-Dataset for PDE10A, Compound 988], the IC50 was 5780 nM. In the case of `O=C(Nc1cccc(N2CCCCC2=O)c1)c1nc(C2CC2)cnc1Nc1cncnc1` [Roche-Dataset for PDE10A, Compound 724], the IC50 is reported as 46 nM. Compound `Cc1cccc(-c2cc(NC(=O)c3c(C(=O)N4CCC4)cnn3C)n[nH]2)n1` [Roche-Dataset for PDE10A, Compound 548] has an IC50 of 9.76 nM. `O=C(Nc1ccn2nc(-c3ccccc3)nc2c1)c1ccc(Cl)nn1` [Roche-Dataset for PDE10A, Compound 897] showed an IC50 of 10000 nM. `Cc1nc(C)n2nc(/C=C/c3nc(N4CCCC4)nn3C)nc2c1Cl` [Roche-Dataset for PDE10A, Compound 382] gave an IC50 of 24 nM. Work on `Cc1c(Cl)cc(Cl)c2nc(CCc3nc4ccccc4n3C)nn12` [Roche-Dataset for PDE10A, Compound 497] yielded an IC50 of 61 nM. `Cc1ncc(C)n2nc(CCc3nc(N4CCNC4=O)nn3C)nc12` [Roche-Dataset for PDE10A, Compound 887] gave an IC50 of 1060 nM. Work on `Cn1nc(NC(=O)c2c(C(=O)N3CCC3)cnn2C)cc1C(=O)N1CCCCC1` [Roche-Dataset for PDE10A, Compound 941] yielded an IC50 of 10000 nM. For `O=C(Nc1cc(-c2ccccn2)nn1C1CCCCC1)c1nc(C2CC2)ccc1Nc1cncnc1`, the IC50 was 1.32 nM. With `Cc1nccc2nc(CCc3nc(N4CCCC4)nn3C)nn12` [Roche-Dataset for PDE10A, Compound 714] the IC50 was 84 nM. Compound `O=C(NC1(c2ccc(Cl)cc2)CCC1)c1nc(C2CC2)cnc1Nc1cncnc1` [Roche-Dataset for PDE10A, Compound 1074] has an IC50 of 863 nM. `COc1c(C)cnc(CCc2ccc3ccccc3n2)c1C` [Roche-Dataset for PDE10A, Compound 701] was tested, and the IC50 was 1480 nM. `O=C(Nc1ccnc(Cl)c1)c1ccc2cc(-c3ccccc3)nn2c1` [Roche-Dataset for PDE10A, Compound 310] showed an IC50 of 37 nM. `O=C(Nc1cc(-c2ccccn2)nn1Cc1ccccc1)c1nc(C2CC2)ccc1Nc1cncnc1` [US8470820, 29] gave an IC50 of 1.71 nM. Compound `Cc1nc(CCNC(=O)c2nc(C3CC3)ccc2Nc2cncnc2)n[nH]1` [Roche-Dataset for PDE10A, Compound 986] has an IC50 of 270 nM. Compound `Cc1nc2ccc(Cl)cc2nc1OCc1nc(-c2ccccc2)cn1C` [Roche-Dataset for PDE10A, Compound 769] has an IC50 of 6.38 nM. `O=C(Nc1cc(-c2ccccn2)nn1C1CCOCC1)c1nc(C2CC2)ccc1Nc1cncnc1` [Roche-Dataset for PDE10A, Compound 24] was tested, and the IC50 was 1.41 nM. `Cc1nc(C)n2nc(/C=C/c3nc(N4CCCC4)nn3C)nc2c1C` [Roche-Dataset for PDE10A, Compound 293] was tested, and the IC50 was 9.16 nM. Work on `CN(C)c1nc2cc(NC(=O)c3c(C(=O)N4CC(F)C4)cnn3C)ccn2n1` [Roche-Dataset for PDE10A, Compound 513] yielded an IC50 of 20 nM. Work on `O=C(Nc1ccc(N2CCCC2=O)cc1)c1nc(C2CC2)ccc1Nc1cncnc1` [Roche-Dataset for PDE10A, Compound 733] yielded an IC50 of 18 nM. In the case of `Cn1cc(-c2ccccc2)nc1CCc1ncoc1-c1ccccc1` [Roche-Dataset for PDE10A, Compound 361], the IC50 is reported as 1000 nM. In the case of `CNC(=O)c1c(NC(=O)c2nc(C3CC3)ccc2Nc2cncnc2)cnn1CCOC` [US8703768, 11], the IC50 is reported as 0.83 nM. With `COCCN(C)c1nc(CCc2nc3c(C)ncc(C)n3n2)nn1C` [Roche-Dataset for PDE10A, Compound 847] the IC50 was 1780 nM.
